In patent publication US20090023773A1, “COMPOSITIONS AND METHODS FOR MODULATING GATED ION CHANNELS” (PainCeptor Pharma Corporation, priority 2007, published 2009):

Columns and labels:
[1] = biological target: T1, recombinant homomeric hASIC1a channels (Homo sapiens, UniProt P78348); assay: Two-electrode voltage clamp in Xenopus laevis oocytes expressing gated ion channels (Example 4); format: cell-based; conditions: generated using oocytes as in Example 4
T1 construct: expressed in transfected cells; host or cells: Xenopus laevis oocytes (nuclear microinjection of expression vector such as pcDNA3)
T1 sequence (P78348 1-528): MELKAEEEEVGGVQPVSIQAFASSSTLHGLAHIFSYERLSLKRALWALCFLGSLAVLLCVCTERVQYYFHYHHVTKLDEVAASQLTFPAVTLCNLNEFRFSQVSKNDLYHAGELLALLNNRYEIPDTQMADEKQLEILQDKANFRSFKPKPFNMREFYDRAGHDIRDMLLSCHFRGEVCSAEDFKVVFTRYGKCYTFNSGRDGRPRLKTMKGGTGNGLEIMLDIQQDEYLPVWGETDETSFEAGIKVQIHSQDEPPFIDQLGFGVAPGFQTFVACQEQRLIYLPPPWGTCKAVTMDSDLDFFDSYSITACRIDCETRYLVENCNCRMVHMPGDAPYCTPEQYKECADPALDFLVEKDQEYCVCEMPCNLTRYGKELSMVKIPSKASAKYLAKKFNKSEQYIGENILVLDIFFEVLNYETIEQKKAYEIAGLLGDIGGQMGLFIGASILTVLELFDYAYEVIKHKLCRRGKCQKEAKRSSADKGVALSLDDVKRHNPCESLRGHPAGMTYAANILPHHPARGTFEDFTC

[2] = tested on: acute paw inflammation caused by intraplantar injection of λ-carrageenan; assay: Carrageenan model for pain (Example 8); format: in vivo; conditions: rat; 30 and 100 mg/kg SC, 30 min prior to carrageenan; 4 h post-carrageenan
Description: Acute inflammatory hyperalgesia is induced in rats by unilateral injection of 150 μl of a 3% solution of λ-carrageenan into the plantar surface of the left hind paw 3-5 hours prior to testing. Thermal hyperalgesia, mechanical allodynia, mechanical hyperalgesia, weight bearing asymmetry and paw inflammation were determined. Rats are pretreated with test compounds either administered intravenously (IV), by subcutaneous injection (SC) or by oral gavage (PO).
Thermal nociceptive thresholds are determined according to the method described elsewhere (Hargreaves et al., 1988). Briefly, through the glass surface, a radiant heat source (8V, 50 W projector bulb) is focused onto the plantar surface of the hind paw. The rat's paw-withdrawal latency to this stimulus is recorded to the nearest 0.1 s. Each latency score is an average of three trials, which are separated by at least 5 min. In all rats, both the injured and uninjured hind paws are similarly tested, allowing direct comparisons between inflamed and non-inflamed paws. […]
Mechanical hyperalgesia is determined by measuring the difference of withdrawal thresholds in response to increasing pressure in the inflamed vs contralateral paw using the Randall-Sellito Paw pressure meter (IITC Life Science) (Randall L O and Sellito J J., 1957). Briefly, rats are held in a contention jacket suspended by a stand and allowed to acclimate for 10 min. Then the tips of the paw pressure applicator are positioned close to the middle of the plantar and the dorsal area of the paw, avoiding the saphenous nerve innervations and an increasing pressure is applied until the rat removes it. Measures are performed in triplicate for each paw by alternating each paw with an interval of at least 1 min to avoid sensitization. […]
Carrageenan induced paw oedema is measured with a plethysmometer (IITC Life Science). Briefly, a mark is made on the ankles of the rat and the ipsi and contralateral paw are submerged 3 times into water up to the mark in order to determine the paw volume by calculation of water displacement.

Cc1cc(OC2CCN(Cc3ccccc3C(=O)NCCCC(=O)OCc3ccccc3)CC2)c2cccc(F)c2n1 [Compound 61]
IC50 ([1]; Table 2): 0.1 to 10 µM

COc1cc(F)cc2c(OC3CCN(Cc4ccccc4-c4nnn[nH]4)CC3)cc(C)nc12 [Compound 37, 6-Fluoro-8-methoxy-2-methyl-4-{1-[2-(1H-tetrazol-5-yl)-benzyl]-piperidin-4-yloxy}-quinoline]
IC50 ([1]; Table 2): 0.1 to 10 µM

COc1ccc(CN2CCC(Oc3cc(C)nc4ccc(Br)cc34)CC2)cc1 [Compound 48]
IC50 ([1]; Table 2): > 30 µM

c1ccc(CN2CCC(Oc3nccc4ccccc34)CC2)cc1 [Compound 83]
IC50 ([1]; Table 2): > 30 µM

Cc1cc(OC2CCN(Cc3ccccc3C#N)CC2)c2ccccc2n1 [Compound 63]
IC50 ([1]; Table 2): > 30 µM

Cc1cc(OC2CC(C)N(Cc3ccccc3F)C(C)C2)c2ccccc2n1 (stereo not drawn) [Compound 67]
IC50 ([1]; Table 2): > 30 µM

Cc1cc(OC2CCN(Cc3ccccc3)CC2)c2cc(-c3cccc(F)c3)ccc2n1 [Compound 55]
IC50 ([1]; Table 2): > 30 µM

Cc1cc(OC2CCN(Cc3ccccc3-c3nnn[nH]3)CC2)c2cccc(F)c2n1 [Compound 50, 4-[1-(2-(1H-tetrazol-5-yl-)benzyl)piperidin-4-yloxy]-8-fluoro2-methylquinoline]
IC50 ([1]; Table 2): 0.1 to 10 µM

Cc1cc(OC2CCN(Cc3ccc4c(c3)OCO4)CC2)c2ccccc2n1 [Compound 86]
IC50 ([1]; Table 2): 10.1 to 20 µM

Cc1cc(OC2CCN(C(C)C)CC2)c2cccc(F)c2n1 [Compound 39]
IC50 ([1]; Table 2): > 30 µM

Cc1cc(OC2CCN(Cc3ccc(O)c(C(=O)O)c3)CC2)c2cccc(F)c2n1 [Compound 90]
IC50 ([1]; Table 2): ≥ 30 µM

Cc1cc(OC2CCN(Cc3cccc(OCc4ccccc4)c3)CC2)c2ccccc2n1 [Compound 85]
IC50 ([1]; Table 2): > 30 µM

COc1cccc(CN2CCC(Oc3cc(C)nc4c(F)cccc34)CC2)c1 [Compound 70]
IC50 ([1]; Table 2): 0.1 to 10 µM

Cc1cc(OC2CCN(Cc3ccccc3-c3nnn[nH]3)CC2)c2cc(F)ccc2n1 [Compound 94, 4-(1-(2-(1H-tetrazol-5-yl)benzyl)piperidin-4-yloxy)-6-fluoro-2-methylquinoline]
IC50 ([1]; Table 2): 0.1 to 10 µM | mechanical hyperalgesia [2]: dose-dependently reversed | size of the inflammation [2]: reduced | thermal hyperalgesia [2]: dose-dependently reversed

Cc1cc(OC2CCN(Cc3c(F)cccc3C#N)CC2)c2cc(Br)ccc2n1 [Compound 44]
IC50 ([1]; Table 2): > 30 µM

COC(=O)c1ccc(CN2CCC(Oc3cc(C)nc4ccccc34)CC2)cc1 [Compound 64]
IC50 ([1]; Table 2): 20.1 to 30 µM

Cc1cc(OC2CCN(Cc3c(F)cccc3C(=O)O)CC2)c2cc(Br)ccc2n1 [Compound 43]
IC50 ([1]; Table 2): > 30 µM

COc1ccc(F)c2c(OC3CCN(Cc4ccccc4)CC3)cc(C)nc12 [Compound 33]
IC50 ([1]; Table 2): > 30 µM

Cc1cc(OC2CCN(Cc3c(F)cccc3F)CC2)c2cccc(F)c2n1 [Compound 77]
IC50 ([1]; Table 2): 10.1 to 20 µM

Cc1cc(OC2CCN(C(C)c3ccccc3)CC2)c2ccccc2n1 (stereo not drawn) [Compound 38]
IC50 ([1]; Table 2): 0.1 to 10 µM

COc1ccc(CN2CCC(Oc3cc(C)nc4c(F)cccc34)CC2)c(F)c1 [Compound 47]
IC50 ([1]; Table 2): 0.1 to 10 µM

Cc1cc(OC2CCN(C(C)c3ccccc3C#N)CC2)c2cccc(F)c2n1 (stereo not drawn) [Compound 18]
IC50 ([1]; Table 1): 20.1 to 30 µM

Cc1cc(OC2CCN(Cc3ccccc3C(=O)Nc3ccc(C(=O)O)cc3)CC2)c2cccc(F)c2n1 [Compound 54]
IC50 ([1]; Table 2): 0.1 to 10 µM

O=C(O)c1cc(OC2CCN(Cc3ccccc3)CC2)c2ccccc2n1 [Compound 12]
IC50 ([1]; Table 1): 20.1 to 30 µM

COc1cccc2c(OC3CCN(Cc4ccccc4C#N)CC3)cc(C)nc12 [Compound 91]
IC50 ([1]; Table 2): > 30 µM

Cc1nc(OC2CCN(Cc3ccccc3C#N)CC2)c2ccccc2n1 [Compound 9]
IC50 ([1]; Table 1): > 30 µM

Cc1cc(OC2CCN(Cc3ccccc3C#N)CC2)c2cc(F)ccc2n1 [Compound 30]
IC50 ([1]; Table 2): 10.1 to 20 µM

c1ccc(CN2CCC(Oc3ccnc4ccccc34)CC2)cc1 [Compound 68]
IC50 ([1]; Table 2): 0.1 to 10 µM

Cc1cc(OC2CCN(Cc3ccccc3C(=O)O)CC2)c2cc(F)ccc2n1 [Compound 31]
IC50 ([1]; Table 2): 10.1 to 20 µM

Cc1cc(OC2CCN(Cc3cccc(O)c3)CC2)c2ccccc2n1 [Compound 22]
IC50 ([1]; Table 1): 0.1 to 10 µM

Cc1cc(OC2CCN(Cc3c(F)cccc3C#N)CC2)c2cc(C#N)ccc2n1 [Compound 45]
IC50 ([1]; Table 2): > 30 µM

Cc1cc(OC2CCN(Cc3cccc(F)c3)CC2)c2ccccc2n1 [Compound 27]
IC50 ([1]; Table 2): 0.1 to 10 µM

c1ccc(CN2CCC(Oc3c4ccccc4nc4ccccc34)CC2)cc1 [Compound 89]
IC50 ([1]; Table 2): > 30 µM

COc1cc(F)cc2c(OC3CCN(Cc4ccccc4)CC3)cc(C)nc12 [Compound 32]
IC50 ([1]; Table 2): 0.1 to 10 µM

Cc1cc(OC2CCN(Cc3ccc(C(=O)O)cc3)CC2)c2cc(O)ccc2n1 [Compound 96]
IC50 ([1]; Table 2): > 30 µM

Cc1cc(OC2CCN(Cc3cccnc3C(=O)O)CC2)c2cccc(F)c2n1 [Compound 25]
IC50 ([1]; Table 1): > 30 µM

COc1ccc(F)c2c(OC3CCN(Cc4ccccc4-c4nnn[nH]4)CC3)cc(C)nc12 [Compound 95]
IC50 ([1]; Table 2): 0.1 to 10 µM

COc1cccc(CN2CCC(Oc3cc(C)nc4ccccc34)CC2)c1 [Compound 14]
IC50 ([1]; Table 1): 0.1 to 10 µM

Cc1cc(OC2CCN(Cc3ccccc3-c3nnn[nH]3)CC2)c2cc(Cl)ccc2n1 [Compound 100]
IC50 ([1]; Table 2): 0.1 to 10 µM

COc1cc(F)cc2c(OC3CCN(Cc4ccccc4C(=O)O)CC3)cc(C)nc12 [Compound 36, 2-[4-(6-Fluoro-8-methoxy-2-methyl-quinolin-4-yloxy)-piperidin-1-ylmethyl]-benzoic acid]
IC50 ([1]; Table 2): 0.1 to 10 µM

Cc1cc(OC2CCN(Cc3cccnc3)CC2)c2cccc(F)c2n1 [Compound 3]
IC50 ([1]; Table 1): 0.1 to 10 µM

Cc1cc(OC2CCN(Cc3ccc(O)cc3F)CC2)c2cccc(F)c2n1 [Compound 49]
IC50 ([1]; Table 2): 0.1 to 10 µM

Cc1cc(OC2CCN(Cc3ccccc3)CC2)c2cc(-c3nnn[nH]3)ccc2n1 [Compound 58]
IC50 ([1]; Table 2): > 30 µM

Cc1cc(OC2CCN(Cc3ccccc3)CC2)c2cccc(O)c2n1 [Compound 21]
IC50 ([1]; Table 1): > 30 µM

Cc1cc(OC2CCN(Cc3ccccc3C#N)CC2)c2cc(OC3CCCCO3)ccc2n1 (stereo not drawn) [Compound 52]
IC50 ([1]; Table 2): > 30 µM

Cc1cc(OC2CCN(Cc3ccccc3C#N)CC2)c2cc(C#N)ccc2n1 [Compound 60]
IC50 ([1]; Table 2): > 30 µM

Cc1cc(OC2CCN(Cc3ccccc3C(=O)O)C3CCCCC23)c2cccc(F)c2n1 (stereo not drawn) [Compound 82]
IC50 ([1]; Table 2): > 30 µM

Cc1cc(OC2CCN(Cc3ccccc3F)C(C)C2)c2ccccc2n1 (stereo not drawn) [Compound 5]
IC50 ([1]; Table 1): 0.1 to 10 µM

COc1ccc(CN2CCC(Oc3cc(C)nc4c(F)cccc34)CC2)cn1 [Compound 72]
IC50 ([1]; Table 2): > 30 µM

COc1ccc(CN2CCC(Oc3cc(C)nc4c(F)cccc34)CC2)cc1 [Compound 41]
IC50 ([1]; Table 2): 0.1 to 10 µM

Cc1cc(OC2CCN(Cc3cccnc3CO)CC2)c2cccc(F)c2n1 [Compound 76]
IC50 ([1]; Table 2): > 30 µM

Cc1cc(OC2CCN(Cc3ccccc3C#N)CC2)c2cccc(F)c2n1 [Compound 17]
IC50 ([1]; Table 1): 0.1 to 10 µM

COc1ncccc1CN1CCC(Oc2cc(C)nc3c(F)cccc23)CC1 [Compound 71]
IC50 ([1]; Table 2): 0.1 to 10 µM

Cc1cc(OC2CCN(Cc3ccncc3F)CC2)c2cccc(F)c2n1 [Compound 73]
IC50 ([1]; Table 2): 20.1 to 30 µM
